According to ChEMBL document CHEMBL4680281, “Recent Advances on Nitrones Design for Stroke Treatment” (J Med Chem, 2020):

Assays:
[1] = Antioxidant activity assessed as SIN1-induced ONOO scavenging activity at 1 uM incubated for 1250 secs by chemiluminescence method relative to control; format: functional; settings: time 1250.0 sec
[2] = Antioxidant activity assessed as SIN1-induced ONOO scavenging activity at 1 mM incubated for 1250 secs by chemiluminescence method relative to control; format: functional; settings: time 1250.0 sec
[3] = system: Rattus norvegicus; test: Neuroprotective activity in Sprague-Dawley rat model of permanent middle cerebral artery occlusion assessed as infarction volume at 80 mg/kg, ip administered 2 hr post MCAO induction and measured 14 hrs post MCAO challenge by TTC staining based assay (reference value: 27.5%); format: functional; settings: time 12 hrs
[4] = Drug concentration in Sprague-Dawley rat brain at 80 mg/kg, iv measured after 5 mins by reverse-phase HPLC method; format: ADME, organism-based; settings: read-out: Ct

For `Cc1nc(C)c(/C=[N+](\[O-])C(C)(C)C)nc1C`, the Activity [1] was 35.3%, the Activity [2] was 94.7% and the Activity [3] was 20.3%. For the same compound, the concentration at 5 min [4] was 650 µM.
